From patent US20250127790A1, “COMBINATION THERAPY USING VPS34 INHIBITORS” (Deciphera Pharmaceuticals, LLC, priority 2021, published 2025)

Key:
[1] = system: 786-O renal cell carcinoma cells; test: qRT-PCR, Type 1 Interferon pathway gene expression in 786-O cells; type: cell-based, Human; details: 2 μM, 24 hr
Method: (§1) 786-O cells were grown in RPMI-1640 medium containing 10% fetal bovine serum. Cells were then incubated for 2 days at 37 degrees Celsius, 5% CO2, and 95% humidity. 786-O cells were incubated with 2 μM of compound 1 for 24 hr. Cells were washed with PBS and RNA was isolated using the PureLink RNA kit (#12183018A, Thermo Fisher Scientific) according to the manufacturer's protocol. Genomic DNA was removed using DNA-binding columns (RNeasy plus kit, #74134, Qiagen) and/or DNase treatment (#12185010, Thermo Fisher Scientific). RNA was quantified using NanoDrop (Thermo Fisher Scientific) and 50 ng/μL RNA was used for cDNA synthesis with SuperScript IV VILO Master Mix (#11756050, Thermo Fisher Scientific). Quantitative RT-PCR (qRT-PCR) was run with diluted cDNA (1:25 or 1:12.5), PowerUp SYBR Green Master Mix (#A25741, Thermo Fisher Scientific), and 200 nM primers (see below) on a CFX Connect RT-PCR system (BioRad). Data was analyzed using the ΔΔCT method. Results are mean±SEM of three independent experiments.

[2] = system: A-498 renal cell carcinoma cells; test: Western blot, STING pathway proteins with siRNA knockdown, A-498 cells; type: cell-based; details: 24 h; for CGAS level / STING level / p-IRF3 level / p-STAT1 level / p-TKB1 level / p-IRF3 and p-STAT1 levels with siRNA knockdown of CGAS / p-TKB1 level with siRNA knockdown of CGAS / p-IRF3 and p-STAT1 levels with siRNA knockdown of STING / p-TBK1 level with siRNA knockdown of STING: 2 μM; for CGAS level / STING level / p-IRF3 level / p-STAT1 level / p-TKB1 level: vs DMSO alone; for p-IRF3 and p-STAT1 levels with siRNA knockdown of CGAS / p-TKB1 level with siRNA knockdown of CGAS: siCGAS; for p-IRF3 and p-STAT1 levels with siRNA knockdown of CGAS / p-TKB1 level with siRNA knockdown of CGAS / p-IRF3 and p-STAT1 levels with siRNA knockdown of STING / p-TBK1 level with siRNA knockdown of STING: vs compound alone; for p-IRF3 and p-STAT1 levels with siRNA knockdown of STING / p-TBK1 level with siRNA knockdown of STING: siSTING; for STING level with siRNA knockdown of TBK1 / CGAS level with siRNA knockdown of TBK1: siTBK1, 2 μM; for CGAS level with siRNA knockdown of TBK1: vs DMSO
Method: A-498 cells were transfected with scrambled siRNA control (siSCR) or siRNA targeting TBK1 (siTBK1), STING (siSTING) or CGAS (siCGAS). After 48 h cells were treated with DMSO or 2 μM of VPS34 inhibitor (Compound 1 or Compound 2) for 24 h. A-498 cells were washed in PBS and lysed in RIPA buffer (50 mM Tris HCl pH=7.4, 150 mM NaCl, 1% Triton X-100, 0.5% Na-deoxycholate, 0.1% SDS) containing protease inhibitor cocktail (#11836170001, Roche), and phosphatase inhibitor (#11836170001, Roche) for 10 min at 4° C. After centrifugation at 15000 rpm for 10 min at 4° C., the supernatant was obtained, and protein concentration was quantified using BCA assay (#23225, Thermo Fisher). Equal amounts were mixed with 0.1 M DTT and LDS Sample Buffer (#84788, Thermo Fisher), heated for 5 min at 90° C. before loading onto 4-12% Bis-Tris gels. Proteins were transferred to nitrocellulose membranes. Membranes were blocked in 5% non-fat dry milk in TBS with 0.05% Tween (TBS-T) for 1 h at RT, washed in TBS-T, and probed with primary antibodies shaking overnight at 4° C. After washing in TBS-T, membranes were incubated with IRDye 800CW goat anti-rabbit or IRDye 680RD donkey anti-mouse IgG (H+L) (#926-32211 and #926-68072, respectively, LI-COR, 1:10,000 dilution) secondary antibody in Intercept blocking buffer (#927-60001, LI-COR) for 1 h at RT. After washing in TBS-T, membranes were imaged using the Odyssey CLx (LI-COR). Band intensities were quantified using Image Studio Lite software version 5.2.5 (LI-COR).

[3] = system: 786-O renal cell carcinoma cells; test: Cytokine secretion assay (MSD) with siRNA knockdown, 786-O cells; type: cell-based, human; details: 24 h; for CCL5 and CXCL10 secretion with siRNA knockdown of CGAS: siCGAS; for CCL5 and CXCL10 secretion with siRNA knockdown of CGAS / increase in CCL5 protein secretion / increase in CXCL10 protein secretion / CCL5 and CXCL10 protein secretion with siRNA knockdown of STING: 2 μM; for CCL5 and CXCL10 secretion with siRNA knockdown of CGAS / CCL5 and CXCL10 protein secretion with siRNA knockdown of STING / secretion of CCL5 or CXCL10 with siRNA knockdown of TBK1: vs compound alone; for increase in CCL5 protein secretion / increase in CXCL10 protein secretion: siRNA against non-specific controls (siSCR); for CCL5 and CXCL10 protein secretion with siRNA knockdown of STING: siSTING; for secretion of CCL5 or CXCL10 with siRNA knockdown of TBK1: siTBK1, 2 μM
Method: 786-O cells were transfected with scrambled siRNA control (siSCR) or siRNA targeting TBK1 (siTBK1), STING (siSTING) or CGAS (siCGAS). After 48 h cells were treated with DMSO or 2 μM of VPS34 inhibitor (Compound 1 or Compound 2) for 24 h. Cell culture medium was centrifuged at 1600 rpm for 10 min at 4° C. and obtained supernatant stored at −80° C. Cytokine levels were quantified using following Meso Scale Discovery (MSD) assays: human R-PLEX RANTES/CCL5 (#F21ZN), U-PLEX CXCL10/IP-10 (#K151UFK). Assays were run on the SECTOR Quickplex Imager and analyzed using Discovery Workbench version 4.0 (MSD).

[4] = system: YUMM 1.7 melanoma cells; test: Cytokine secretion assay, combination with cGAMP, YUMM1.7 cells; type: cell-based, mouse; details: 24 hours, 5 μM Compound 1 or 10 μM Compound 2, 10 mg/ml cGAMP
Method: as §1, with “YUMM1.7” for “786-O”, “treated” for “grown in RPMI-1640 medium containing 10% fetal bovine serum. Cells were then incubated for 2 days at 37 degrees Celsius, 5% CO2, and 95% humidity. 786-O cells were incubated with 2 μM of compound 1”, “hours with DMSO or VPS34 inhibitors (5 μM Compound 1 or 10 μM Compound 2) in combination with 10 mg/ml STING agonist cGAMP (green bars).” for “hr.”
Cell culture medium was centrifuged at 1600 rpm for 10 min at 4° C. and obtained supernatant stored at −80° C. Cytokine levels were quantified using following Meso Scale Discovery (MSD) assays: mouse U-PLEX RANTES/CCL5 (#K152A2K) and U-PLEX IP-10/CXCL10 (#K152UFK). Assays were run on the SECTOR Quickplex Imager and analyzed using Discovery Workbench version 4.0 (MSD).

[5] = system: 786-O renal cell carcinoma cells; test: qRT-PCR with siRNA knockdown of STING pathway genes, 786-O cells; type: cell-based, Human; details: 24 h, vs compound alone; for IFNB1, CCL5 and CXCL10 expression with siRNA knockdown of CGAS / IRF7 expression with siRNA knockdown of CGAS: siCGAS; for IFNB1, CCL5 and CXCL10 expression with siRNA knockdown of CGAS / IRF7 expression with siRNA knockdown of CGAS / IFNB1, CCL5 and CXCL10 expression with siRNA knockdown of STING / IRF7 expression with siRNA knockdown of STING: 2 μM; for IFNB1, CCL5 and CXCL10 expression with siRNA knockdown of STING / IRF7 expression with siRNA knockdown of STING: siSTING; for IFNB1 expression with siRNA knockdown of TBK1 / IRF7, CCL5 and CXCL10 expression with siRNA knockdown of TBK1: siTBK1, 2 μM

| Structure (SMILES) | increase in mRNA expression of IRF9 [1] | CGAS level [2] | STING level [2] | p-IRF3 level [2] | p-STAT1 level [2] | p-TKB1 level [2] | p-IRF3 and p-STAT1 levels with siRNA knockdown of CGAS [2] | p-TKB1 level with siRNA knockdown of CGAS [2] | p-IRF3 and p-STAT1 levels with siRNA knockdown of STING [2] | p-TBK1 level with siRNA knockdown of STING [2] | STING level with siRNA knockdown of TBK1 [2] | CGAS level with siRNA knockdown of TBK1 [2] | CCL5 and CXCL10 secretion with siRNA knockdown of CGAS [3] | increase in CCL5 protein secretion [3] [fold] | increase in CXCL10 protein secretion [3] [fold] | CCL5 and CXCL10 protein secretion with siRNA knockdown of STING [3] | secretion of CCL5 or CXCL10 with siRNA knockdown of TBK1 [3] | CCL5 protein secretion [4] | CXCL10 protein secretion [4] | IFNB1, CCL5 and CXCL10 expression with siRNA knockdown of CGAS [5] | further results |
| --- | --- | --- | --- | --- | --- | --- | --- | --- | --- | --- | --- | --- | --- | --- | --- | --- | --- | --- | --- | --- | --- |
| C[C@@H]1COCCN1c1cc(N2CCCC[C@@H]2C(F)(F)F)[nH]c(=O)c1 [Compound 1, 4-((R)-3-methylmorpholino)-6-((R)-2-(trifluoromethyl)piperidin-1-yl)pyridin-2(1H)-one] | approximately 2 fold | mild increase | increase | strong increases | strong increases | increase | complete loss | decrease | complete loss | decrease | increase | increase | near complete ablation | ~2 | ~2 | near complete ablation | decreased secretion | increased | increased | complete ablation | IRF7 expression with siRNA knockdown of CGAS [5]: significant decreases; IFNB1, CCL5 and CXCL10 expression with siRNA knockdown of STING [5]: complete ablation; IRF7 expression with siRNA knockdown of STING [5]: significant decreases; IFNB1 expression with siRNA knockdown of TBK1 [5]: near complete ablation; IRF7, CCL5 and CXCL10 expression with siRNA knockdown of TBK1 [5]: modest decreases |
| C[C@@H]1COCCN1c1cc(=O)n2c(n1)N(Cc1cncc(Cl)c1)[C@H](C(F)(F)F)CC2 [Compound 2, (S)-9-((5-chloropyridin-3-yl)methyl)-2-((R)-3-methylmorpholino)-8-(trifluoromethyl)-6,7,8,9-tetrahydro-4H-pyrimido[1,2-a]pyrimidin-4-one] | approximately 2 fold | mild increase | increase | strong increases | strong increases | increase | complete loss | decrease | complete loss | decrease | increase | increase | near complete ablation | ~2 | ~2 | near complete ablation | decreased secretion | increased | increased | complete ablation | IRF7 expression with siRNA knockdown of CGAS [5]: significant decreases; IFNB1, CCL5 and CXCL10 expression with siRNA knockdown of STING [5]: complete ablation; IRF7 expression with siRNA knockdown of STING [5]: significant decreases; IFNB1 expression with siRNA knockdown of TBK1 [5]: near complete ablation; IRF7, CCL5 and CXCL10 expression with siRNA knockdown of TBK1 [5]: modest decreases |
